# US20160251402A1, “MICROPEPTIDES AND USE OF SAME FOR MODULATING GENE EXPRESSION” (UNIVERSITE PAUL SABATIER TOULOUSE III, priority 2013, published 2016)
# “Also recorded” adds a separate entry of the source.
# How the values were obtained:
# [1] = test system: pre-MtmiR171b, pre-MtmiR169, pre-MtmiR169a, pre-MtmiR171a, pre-MtmiR171h, pre-MtmiR393a, pre-MtmiR393b, pre-MtmiR396a, pre-MtmiR396b; test: Specificity: expression of different precursors of microRNAs in M. truncatula; format: in vivo, Medicago truncatula; conditions: plants overexpressing MtmiPEP171b1 or treated with MtmiPEP171b1 (0.1 μM)
# Experimental: The expression of different microRNA precursors of Medicago truncatula (MtmiR171b SEQ ID NO: 319, MtmiR169 SEQ ID NO: 367, MtmiR169a SEQ ID NO: 368, MtmiR171a SEQ ID NO: 369, MtmiR171h SEQ ID NO: 370, MtmiR393a SEQ ID NO: 371, MtmiR393b SEQ ID NO: 372, MtmiR396a SEQ ID NO: 373 and MtmiR396b SEQ ID NO: 374) was determined and compared between control plants and plants in which MtmiORF171b encoding MtmiPEP171b1 was overexpressed (FIG. 5A), or between control plants and plants grown on culture medium containing MtmiPEP171b1 (FIG. 5B).
# (§1) The total RNA was extracted from roots of M. truncatula or from tobacco leaves using the extraction kit RNeasy Plant Mini Kit (Qiagen). The reverse transcription was performed using the reverse transcriptase SuperScript II (Invitrogen) starting from 500 ng of total RNA. Three repetitions (n=3) were carried out, each with two technical repetitions. Each experiment was repeated from two to three times. The amplifications by qPCR were carried out using a LightCycler 480 System thermocycler (Roche Diagnostics) by the method described in Lauressergues et al. (Plant J., 72(3): 512-22, 2012).
# [2] = test system: HAM2 (accession No. MtGI9-TC120850); test: Expression of the HAM2 gene in M. truncatula (qRT-PCR); format: in vivo, Medicago truncatula
# Experimental: (§2) The surface of seeds of M truncatula was sterilized and they were left to germinate on agar plates for 5 days at 4° C. in the dark. The young shoots were then grown on 12-cm square plates filled with Fahraeus medium without nitrogen and containing 7.5 μM phosphate (Lauressergues et al., Plant J., 72(3): 512-22, 2012). The lateral roots were counted every day. In pots, the plants were watered every other day with modified Long Ashton medium with low phosphorus content (Balzergue et al., Journal of Experimental Botany, (62)1049-1060, 2011).
# The peptides were synthesized by Eurogentec or Smartox-Biotech. MtmiPEP171b1 was resuspended in a solution of 40% water/50% acetonitrile/10% acetic acid (v/v/v), and the other peptides were resuspended in water.
# The total RNA was extracted from roots of M. truncatula or from tobacco leaves using the extraction kit RNeasy Plant Mini Kit (Qiagen). […]
# The mean values of the relative expression of the genes or of the production of lateral roots were analysed using the Student test or the Kruskal-Wallis test. […]
# The composite plants having roots transformed with Agrobacterium rhizogenes were obtained by the method described in Boisson-Dernier et al. (Mol Plant-Microbe Interact, 18: 1269-1276, 2005). The transformed roots were verified and selected by observations of DsRED with a binocular fluorescence magnifier. […]
# [3] = test system: Medicago truncatula lateral roots; test: Number of lateral roots in M. truncatula; format: in vivo
# Experimental: as §2, with “2011). The mean values of the relative expression of the genes or of the production of lateral roots were analysed using the Student test or the Kruskal-Wallis test. The error bars represent the SEM (Standard Error of the Mean). The asterisks indicate a significant difference (p<0.05).” for “2011).”
# MtmiR171b = test: Accumulation of pri-/pre-/mature MtmiR171b in transformed tobacco leaves; format: in vivo, Nicotiana benthamiana
# Experimental: In order to determine whether the mechanism of regulation of the microRNAs is conserved in other plant species, the regulation of MtmiR171b by MtmiPEP171b1 was tested in a different cellular model. For this, MtmiR171b and MtmiPEP171b1 were introduced into tobacco leaves.
# The accumulation of MtmiR171b was measured in tobacco leaves transformed in order to express MtmiR171b of Medicago truncatula starting from wild-type pri-miRNA capable of producing MtmiPEP171b1, or starting from a mutated version of pri-miRNA incapable of producing MtmiPEP171b1 (in which the start codon ATG of MtmiORF171b has been replaced with ATT) (FIG. 6 and FIG. 20).
# The accumulation of pre-MtmiR171b was measured in tobacco leaves transformed in order to express MtmiR171b of Medicago truncatula alone (control), or additionally expressing the wild-type MtmiORF171b of Medicago truncatula (35SmiPEP171b1 ATG), or a mutated version of MtmiORF171b in which the start codon ATG has been replaced with ATT (35SmiPEP171b1 ATT) (FIG. 7 and FIG. 21).
# The leaves were watered by spraying with the peptides using peptide solutions at different concentrations (0.01, 0.1, 1 μM), firstly 12 h before sampling and then a second time 30 min before sampling.
# as §1
# The DNA fragments of interest were amplified with Pfu polymerase (Promega). The DNA fragments were cloned using the XhoI and NotI enzymes into a pPEX-DsRED plasmid for an overexpression under the control of the constitutive strong promoter 35S, and using the KpnI-NcoI enzymes into a pPEX GUS plasmid for the reporter genes, by the method described in Combier et al. (Genes & Dev, 22: 1549-1559, 2008).
# The composite plants having roots transformed with Agrobacterium rhizogenes were obtained by the method described in Boisson-Dernier et al. (Mol Plant-Microbe Interact, 18: 1269-1276, 2005). The transformed roots were verified and selected by observations of DsRED with a binocular fluorescence magnifier. The control roots correspond to roots transformed with A. rhizogenes not containing the pPEX-DsRED vector. Transformation of the tobacco leaves was carried out by the method described in Combier et al. (Genes & Dev, 22: 1549-1559, 2008).
# [4] = plant in which MtmiPEP171b1 is overexpressed vs control plant
sequence,measurement,setting,value
MLLHRLSKFCKIERDIVYIS (listed as Medicago truncatula) [MtmiPEP171b1],ratio of the expression of the precursors of microRNAs to control roots (specificity),[1],only leads to an effect on the accumulation of MtmiR171b and not on the other miRNAs; also recorded: only leads to an increase in the accumulation of MtmiR171b and not of the other miRNAs
same,relative expression of HAM2,[2]; [4],decrease in the expression of the HAM1 and HAM2 genes
same,relative expression of HAM2,"[2]; watering once daily for 5 days with peptide at 0.01, 0.1 or 1 μM vs control plant",decrease in the expression of the HAM1 and HAM2 genes
same,mean number of lateral roots,[3]; [4],reduction in the number of lateral roots
same,mean number of lateral roots,[3]; watering with peptide at 0.1 μM once daily for 5 days vs control plant,reduction in the number of lateral roots
same,relative expression of MtmiR171b,"MtmiR171b; tobacco co-transformed with empty vector, miPEP vector, ATT-mutated ORF or degenerate ORF",increases the expression of MtmiR171b
same,relative expression of pre-MtmiR171b,MtmiR171b; tobacco expressing MtmiR171b alone vs MtmiR171b and MtmiPEP171b1 (or ATT-mutated miORF),increases the expression of MtmiR171b
same,relative expression of pre-MtmiR171b,"MtmiR171b; tobacco expressing MtmiR171b and MtmiPEP171b1 with or without protein tags (His, HA or GFP)","increases the expression of MtmiR171b, and this effect is independent of the presence of tags"
same,relative expression of MtmiR171b,"MtmiR171b; tobacco expressing MtmiR171b, peptide 0.1 μM sprayed twice, 12 h and 30 min before sampling",increase in the accumulation of MtmiR171b
same,relative expression of MtmiR171b,"MtmiR171b; tobacco expressing MtmiR171b, peptide 0.1 μM sprayed twice, 12 h and 30 min before sampling, listed as miPEP171b1",increases the accumulation
same,relative expression of pre-MtmiR171b,"MtmiR171b; tobacco expressing MtmiR171b, treated with 0.1 μM of peptide",increase in the accumulation
same,relative expression of pre-MtmiR171b,"MtmiR171b; tobacco expressing MtmiR171b, treated with 0.1 μM of peptide, listed as miPEP171b1",increases the accumulation
same,relative expression of MtmiR171b,"MtmiR171b; tobacco expressing pri-MtmiR171b vs mutated pri-MtmiR171b (ATG replaced with ATT, no translation of the miPEP)",marked decrease in the accumulation of miR171b; also recorded: marked decrease in the accumulation of MtmiR171b
same,relative expression of MtmiR171b,"MtmiR171b; tobacco expressing pri-MtmiR171b vs mutated pri-MtmiR171b (ATG replaced with ATT, no translation of the miPEP), listed as miPEP171b1",marked decrease in the accumulation of miR171b
